Reference: publication PMC12292835, “Amylin Receptor 1 Mutagenesis Revealed a Potential Role of Calcitonin Serine 29 in Receptor Interaction” (Biomedicines, 2025)
Where a SMILES comes first, the peptide text is derived from it. The star is where a group is joined. FITC = O=C1OC2(c3ccc(O)cc3Oc3cc(O)ccc32)c2ccc(NC(=S)*)cc21

Experiments:
[1] = target: T1, amylin receptor 1 ECD with calcitonin receptor E123A mutation (Homo sapiens, UniProt O60894+P30988, E123A); assay: FP saturation binding, E123A; conditions: for Average fluorescence intensity change upon receptor ECD binding: % of a free probe intensity, Mean ± S.D., E123A, max receptor 3 μM (sCT), 1 μM (AC413); for decrease of binding affinity: E123A versus wild-type receptor ECD
T1 construct: pHLsec/hRAMP1.24–111-(GSA)3-hCTR.34–141.E123A-H6 (D-pJJ004); H6 (hexahistidine) (C); made in house; host or cells: HEK293 (transient transfection, secreted, N-glycosylated)
From the text: (§1) pHLsec-based vectors were used to express wild-type and mutated amylin receptor 1 extracellular domains as secreted proteins to cell culture media. The plasmid DNA construct of the wild-type amylin receptor 1 extracellular domain, pHLsec/hRAMP1.24–111-(GSA)3-hCTR.34–141-H6 (H-pSL005) was previously described. The following DNA vector plasmids were made for this study: pHLsec/hRAMP1.24–111-(GSA)3-hCTR.34–141.D97A-H6 (D-pSL009), pHLsec/hRAMP1.24–111-(GSA)3-hCTR.34–141.D97E-H6 (D-pJS001), pHLsec/hRAMP1.24–111-(GSA)3-hCTR.34–141.D101A-H6 (D-pJJ003), pHLsec/hRAMP1.24–111-(GSA)3-hCTR.34–141.D101E-H6 (D-pJJ002), pHLsec/hRAMP1.24–111-(GSA)3-hCTR.34–141.E123A-H6 (D-pJJ004), pHLsec/hRAMP1.24–111-(GSA)3-hCTR.34–141.E123D-H6 (D-pJJ001), pHLsec/hRAMP1.24–111-(GSA)3-hCTR.34–141.N124A-H6 (D-pJS005), pHLsec/hRAMP1.24–111-(GSA)3-hCTR.34–141.N124D-H6 (D-pJS006), pHLsec/hRAMP1.24–111-(GSA)3-hCTR.34–141.N135A-H6 (D-pJW001), and pHLsec/hRAMP1.24–111-(GSA)3-hCTR.34–141.N135D-H6 (D-pJS002). The mutations were introduced to the calcitonin receptor extracellular domain by using DNA Assembly reaction. Coding sequences of the receptor expression vectors were confirmed with Sanger sequencing by Bionics (Seoul, Republic of Korea). DNA plasmid vectors were extracted and were purified from bacterial cells with NucleoBond® Extra Midi Plus kit (Macherey-Nagel, Germany). The purified DNA vectors were stored at −20 °C until their use for mammalian cell transfection.
(§2) The overall experimental procedure of reconstituting the functional amylin receptor 1 extracellular domain (ECD) as the fusion protein of RAMP1 ECD and the calcitonin receptor ECD was previously described. The wild-type and mutated amylin receptor 1 ECDs were expressed from HEK293 cells with transient transfection with polyethylenimine. The expressed receptor proteins were secreted to cell culture media for 4 days at 37 °C. The media were collected for the receptor protein purification. Initial dialysis was performed with the dialysis buffer (Tris 25 mM (pH 7.4), NaCl 150 mM, and imidazole 10 mM) overnight. […] Then, a size exclusion column chromatography (SEC) was performed with SEC column (Cytiva, HiLoad® 16/600 Superdex® 200 pg) and SEC buffer (Tris 50 mM (pH 7.4), NaCl 150 mM, and glycerol (v/v) 10%) as previously described. As the final step, the purified receptor proteins were dialyzed to storage buffer (HEPES 25 mM (pH 7.4), NaCl 150 mM, and glycerol (v/v) 50 %) and were stored at −60 °C until their use for the receptor–ligand binding assay. […]
(§3) The overall procedure of the FP binding assay with a saturation binding format was previously described. […] FITC-labeled peptide probes were incubated for 1 h at room temperature with the purified receptor protein prior to fluorescence signal measurement. […]

[2] = target: T2, amylin receptor 1 ECD with calcitonin receptor N124D mutation (Homo sapiens, UniProt O60894+P30988, N124D); assay: FP saturation binding, N124D; conditions: for Average fluorescence intensity change upon receptor ECD binding: % of a free probe intensity, Mean ± S.D., max receptor 3 μM (sCT), 1 μM (AC413); for effect of mutation on binding affinity: compared with N124A, in words
T2 construct: pHLsec/hRAMP1.24–111-(GSA)3-hCTR.34–141.N124D-H6 (D-pJS006); H6 (hexahistidine) (C); made in house; host or cells: HEK293 (transient transfection, secreted, N-glycosylated)
From the text: as §1
The overall experimental procedure of reconstituting the functional amylin receptor 1 extracellular domain (ECD) as the fusion protein of RAMP1 ECD and the calcitonin receptor ECD was previously described. The wild-type and mutated amylin receptor 1 ECDs were expressed from HEK293 cells with transient transfection with polyethylenimine. The expressed receptor proteins were secreted to cell culture media for 4 days at 37 °C. The media were collected for the receptor protein purification. Initial dialysis was performed with the dialysis buffer (Tris 25 mM (pH 7.4), NaCl 150 mM, and imidazole 10 mM) overnight. […] Then, a size exclusion column chromatography (SEC) was performed with SEC column (Cytiva, HiLoad® 16/600 Superdex® 200 pg) and SEC buffer (Tris 50 mM (pH 7.4), NaCl 150 mM, and glycerol (v/v) 10%) as previously described. As the final step, the purified receptor proteins were dialyzed to storage buffer (HEPES 25 mM (pH 7.4), NaCl 150 mM, and glycerol (v/v) 50 %) and were stored at −60 °C until their use for the receptor–ligand binding assay. All purification procedures were performed at 4 °C.
Two peptide probes labeled with fluorescein isothiocyanate (FITC) were used for this study: FITC-labeled salmon calcitonin (sCT) fragment(22–32) and FITC-labeled AC413(6–25) with Y25P mutation. These peptide probes were custom-synthesized from Genscript (Piscataway, NJ, USA). These peptides were used as the probes for the receptor–ligand binding assay. These peptides were HPLC-purified with at least 85% purity by Genscript (Piscataway, NJ, USA). Mass spectrometry performed at Genscript confirmed the correct molecular mass of the synthesized peptides. The extinction coefficient of FITC (63,000 M^−1·cm^−1 at 495 nm, pH 7.0) was used to calculate the concentration of the peptides.
The overall procedure of the FP binding assay with a saturation binding format was previously described. A total of 10 nM FITC-labeled sCT(22–32) and 10 nM FITC-labeled AC413(6–25) with Y25P mutation were used for the receptor–ligand binding assay. For the saturation binding format, the non-linear regression curves were generated by using user-defined equations that were previously described for affinity calculation. FITC-labeled peptide probes were incubated for 1 h at room temperature with the purified receptor protein prior to fluorescence signal measurement. […]

[3] = target: T3, amylin receptor 1 ECD with calcitonin receptor D101A mutation (Homo sapiens, UniProt O60894+P30988, D101A); assay: FP saturation binding, D101A; conditions: for Average fluorescence intensity change upon receptor ECD binding: % of a free probe intensity, Mean ± S.D., max receptor 1 μM; for effect of mutation on binding affinity: in words
T3 construct: pHLsec/hRAMP1.24–111-(GSA)3-hCTR.34–141.D101A-H6 (D-pJJ003); H6 (hexahistidine) (C); made in house; host or cells: HEK293 (transient transfection, secreted, N-glycosylated)
From the text: as §1, §2, §3

[4] = target: T4, amylin receptor 1 ECD with calcitonin receptor D97A mutation (Homo sapiens, UniProt O60894+P30988, D97A); assay: FP saturation binding, D97A; conditions: for Average fluorescence intensity change upon receptor ECD binding: % of a free probe intensity, Mean ± S.D., max receptor 3 μM (sCT), 1 μM (AC413)
T4 construct: pHLsec/hRAMP1.24–111-(GSA)3-hCTR.34–141.D97A-H6 (D-pSL009); H6 (hexahistidine) (C); made in house; host or cells: HEK293 (transient transfection, secreted, N-glycosylated)
From the text: as §1, §2, §3

[5] = target: T5, amylin receptor 1 ECD with calcitonin receptor D101E mutation (Homo sapiens, UniProt O60894+P30988, D101E); assay: FP saturation binding, D101E; conditions: for Average fluorescence intensity change upon receptor ECD binding: % of a free probe intensity, Mean ± S.D., max receptor 3 μM (sCT), 1 μM (AC413)
T5 construct: pHLsec/hRAMP1.24–111-(GSA)3-hCTR.34–141.D101E-H6 (D-pJJ002); H6 (hexahistidine) (C); made in house; host or cells: HEK293 (transient transfection, secreted, N-glycosylated)
From the text: as §1
The overall experimental procedure of reconstituting the functional amylin receptor 1 extracellular domain (ECD) as the fusion protein of RAMP1 ECD and the calcitonin receptor ECD was previously described. The wild-type and mutated amylin receptor 1 ECDs were expressed from HEK293 cells with transient transfection with polyethylenimine. […]
as §3

T4 sequence (O60894 24-111): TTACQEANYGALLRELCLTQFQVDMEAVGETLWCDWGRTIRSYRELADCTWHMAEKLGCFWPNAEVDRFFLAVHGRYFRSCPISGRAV
T4 sequence (P30988 34-141 D97A): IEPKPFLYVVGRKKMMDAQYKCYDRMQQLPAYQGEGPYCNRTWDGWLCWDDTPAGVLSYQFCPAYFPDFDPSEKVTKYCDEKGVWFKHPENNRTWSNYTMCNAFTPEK
T5 sequence (O60894 24-111): as the sequence (O60894 24-111) above
T5 sequence (P30988 34-141 D101E): as the sequence (P30988 34-141 D97A) above, with A64D, D68E counted along it
T3 sequence (O60894 24-111): as the sequence (O60894 24-111) above
T3 sequence (P30988 34-141 D101A): as the sequence (P30988 34-141 D97A) above, with A64D, D68A counted along it
T1 sequence (O60894 24-111): as the sequence (O60894 24-111) above
T1 sequence (P30988 34-141 E123A): as the sequence (P30988 34-141 D97A) above, with A64D, E90A counted along it
T2 sequence (O60894 24-111): as the sequence (O60894 24-111) above
T2 sequence (P30988 34-141 N124D): as the sequence (P30988 34-141 D97A) above, with A64D, N91D counted along it

Compound: CC(C)C[C@H](NC(=O)[C@H](CCCNC(=N)N)NC(=O)[C@@H](NC(=O)[C@H](CC(C)C)NC(=O)[C@H](Cc1ccccc1)NC(=O)[C@H](CC(N)=O)NC(=O)[C@H](C)NC(=S)Nc1ccc2c(c1)C(=O)OC21c2ccc(O)cc2Oc2cc(O)ccc21)C(C)C)C(=O)N[C@@H](CCC(N)=O)C(=O)N[C@H](C(=O)N[C@@H](Cc1ccc(O)cc1)C(=O)N1CCC[C@H]1C(=O)N[C@@H](CCCNC(=N)N)C(=O)N[C@H](C(=O)N[C@@H](CC(N)=O)C(=O)N[C@H](C(=O)NCC(=O)N[C@@H](C)C(=O)N[C@@H](CC(N)=O)C(=O)N[C@H](C(=O)N1CCC[C@H]1C(N)=O)[C@@H](C)O)C(C)C)[C@@H](C)O)[C@@H](C)O [FITC-AC413(6–25) Y25P] ({FITC}-ANFLVRLQTYPRTNVGANTP-NH2; C-terminus assumed)
- Average fluorescence intensity change upon receptor ECD binding [1]: 77 ± 13%
- decrease of binding affinity [1]: 2.3 fold
- Average fluorescence intensity change upon receptor ECD binding [2]: 88 ± 8%
- effect of mutation on binding affinity [2]: failed to restore the decreased binding affinity
- effect of mutation on binding affinity ([2]; listed as AC413 fragment): failed to restore the decreased affinity
- Average fluorescence intensity change upon receptor ECD binding [3]: 97 ± 3%
- effect of mutation on binding affinity [3]: markedly decreased the binding affinity
- Average fluorescence intensity change upon receptor ECD binding ([4]; D97A): 71 ± 4%
- effect of mutation on binding affinity ([4]; D97A, in words): not significantly changed
- Average fluorescence intensity change upon receptor ECD binding [5]: 99 ± 3%

Compound: C[C@@H](O)[C@H](NC(=O)[C@H](CC(N)=O)NC(=O)[C@@H](NC(=O)[C@H](CCCNC(=N)N)NC(=O)[C@@H]1CCCN1C(=O)[C@H](Cc1ccc(O)cc1)NC(=S)Nc1ccc2c(c1)C(=O)OC21c2ccc(O)cc2Oc2cc(O)ccc21)[C@@H](C)O)C(=O)NCC(=O)N[C@@H](CO)C(=O)NCC(=O)N[C@H](C(=O)N1CCC[C@H]1C(N)=O)[C@@H](C)O [FITC-sCT(22–32)] ({FITC}-YPRTNTGSGTP-NH2; C-terminus assumed)
- Average fluorescence intensity change upon receptor ECD binding [1]: 72 ± 1%
- decrease of binding affinity [1]: 4.5 fold
- Average fluorescence intensity change upon receptor ECD binding [2]: 77 ± 5%
- effect of mutation on binding affinity [2]: fully restored the decreased binding affinity
- effect of mutation on binding affinity ([2]; listed as salmon calcitonin fragment): restored the decreased affinity
- Average fluorescence intensity change upon receptor ECD binding [3]: 101 ± 4%
- effect of mutation on binding affinity [3]: markedly decreased the binding affinity
- Average fluorescence intensity change upon receptor ECD binding ([4]; D97A): 75 ± 12%
- decrease of binding affinity ([4]; D97A versus wild-type receptor ECD): 6.8 fold
- Average fluorescence intensity change upon receptor ECD binding [5]: 118 ± 13%
- effect of mutation on binding affinity ([5]; in words): failed to recover the binding affinity
